One assay deals with T47D. As to the kind of experiment: Cancer cell proliferation, T47D. In kind it is cell-based.
The target of another assay is IR D707A (Homo sapiens, UniProt P06213, D734A). As to the kind of experiment: IR signaling in IR-D707A MEFs (tamoxifen-inducible IR knockout). Conditions: wide range of concentrations. It is filed as cell-based, mouse. More on the design: expressed in transfected cells; host or cells: mouse embryonic fibroblasts from IR F/F; CRE-ERT mice, retroviral pBabe-puro, tamoxifen-treated. How it is done:
Fresh 0.25% trypsin-EDTA was added. […] The medium was changed the next day to remove debris and floating cells.

Assay [1] is classed as in vivo, mice. Conditions: 50 U/kg once daily for three days; 2 g glucose/kg after 6 hr. fast. How it is done:
For oral glucose tolerance test, mice were fasted for 6 hr. and their blood glucose levels (T=0) were measured with tail bleeding using a glucometer (AlphaTRAK). After then, glucose (2 g/kg body weight) was administered by oral gavage. Blood glucose levels were measured at the indicated time points after glucose administration. For FIG. 31F, 2 months old male mice were fasted for 14 hr. […] One hour later livers were collected.

The subject of assay [2] is CAL33. As to the kind of experiment: Cancer cell proliferation, CAL33. It is filed as cell-based.
In another assay the test system is MCF7. As to the kind of experiment: IR signaling in cancer cells, MCF7. As to conditions: 10, 100 or 300 nM for 10 minutes. In kind it is cell-based.
The next assay concerns the target T1, IR R14W (Homo sapiens, UniProt P06213, R41W).
T1 construct: expressed in transfected cells; host or cells: 293 FT cells
As to the kind of experiment: IR activation assay in 293 FT cells, IR R14W mutant. It is filed as cell-based. As to conditions: 10 min.

The next assay addresses T2, IR K484E/L552A (Homo sapiens, UniProt P06213, K511E/L579A).
T2 construct: expressed in transfected cells; host or cells: 293 FT cells
As to the kind of experiment: IR activation assay in 293 FT cells, IR K484E/L552A double mutant. Conditions: 10 nM for 10 min. It is filed as cell-based.

The target in a further assay is T3, IR F64A (Homo sapiens, UniProt P06213, F91A).
T3 construct: expressed in transfected cells; host or cells: 293 FT cells
As to the kind of experiment: IR activation assay in 293 FT cells, IR F64A mutant. In kind it is cell-based. Conditions: 10 nM for 10 min.

A further assay deals with T4, IR R14A (Homo sapiens, UniProt P06213, R41A).
T4 construct: expressed in transfected cells; host or cells: 293 FT cells
As to the kind of experiment: IR activation assay in 293 FT cells, IR R14A mutant. In kind it is cell-based. As to conditions: 10 min.

Assay [3] concerns the target insulin-like growth factor 1 receptor (IGF1R) (Homo sapiens, UniProt P08069). Conditions: previous studies; cited from earlier work.
In another assay the test system is C2C12 cells. As to the kind of experiment: MTT assay in C2C12 cells. In kind it is cell-based. How it is done: To examine the function of […] on cell viability and growth, an MTT assay was performed in C2C12 cells.
The subject of assay [4] is CAL33. As to the kind of experiment: IR signaling in cancer cells, CAL33. As to conditions: 10, 100 or 300 nM for 10 minutes. In kind it is cell-based.
For a further assay, the target named is IR (Mus musculus, UniProt P15208). As to the kind of experiment: Insulin receptor endocytosis in vivo (liver sections). More on the design: from tissue; host or cells: liver of C57BL/6J mice; species or system mice. As to the method: For IR endocytosis assays, the livers were fixed in 10% Neutral Buffered Formalin (NBF) and embedded in paraffin blocks. Sections were deparaffinized, subjected to immunohistochemistry as described in the immunohistochemistry section and previous study.
The immunohistochemistry was performed as described earlier with some modifications. Mouse tissues were fixed in 10% NBF and embedded in paraffin blocks by the Molecular Pathology Core at Columbia University. The deparaffinized sections were subjected to antigen retrieval with 10 mM sodium citrate (pH 6.0), incubated with 0.3% H2O2, blocked with 3% bovine serum albumin (BSA), and then incubated with anti-IR antibodies (CT-3, Millipore, Cat. #MABS65, 1:100) in 3% BSA in PBS with 0.1% Triton X-100 (0.1% PBST) at 4° C. overnight. The slides were washed and incubated with secondary antibodies (Alexa Fluor 568 donkey anti-mouse, Invitrogen, Cat. #A10037, 1:200). The washed slides were stained with 4′,6′-diamidino-2-phenylindole (DAPI). Ten images were randomly taken under x60 magnification with a Leica Thunder Imager (Leica Microsystems Inc.). Images of sections were acquired as series of 0.2 μm stacks. The cell edges were defined with Image J as described earlier. The whole cell signal intensity (WC) and intracell cellular intensity (IC) were measured. The plasma membrane signal intensity (PM) was calculated by subtracting IC from WC. […]

Molecules are shown by their SMILES. Bridge positions count the residues as written; N and C are the ends. Peptide text beside a SMILES is read from it.

The values below come from US20250250303A1 (THE TRUSTEES OF COLUMBIA UNIVERSITY IN THE CITY OF NEW YORK, priority 2022, published 2025).

Chain of IR D707A (P06213 28-1370 isoform P06213-2 D734A limits assumed): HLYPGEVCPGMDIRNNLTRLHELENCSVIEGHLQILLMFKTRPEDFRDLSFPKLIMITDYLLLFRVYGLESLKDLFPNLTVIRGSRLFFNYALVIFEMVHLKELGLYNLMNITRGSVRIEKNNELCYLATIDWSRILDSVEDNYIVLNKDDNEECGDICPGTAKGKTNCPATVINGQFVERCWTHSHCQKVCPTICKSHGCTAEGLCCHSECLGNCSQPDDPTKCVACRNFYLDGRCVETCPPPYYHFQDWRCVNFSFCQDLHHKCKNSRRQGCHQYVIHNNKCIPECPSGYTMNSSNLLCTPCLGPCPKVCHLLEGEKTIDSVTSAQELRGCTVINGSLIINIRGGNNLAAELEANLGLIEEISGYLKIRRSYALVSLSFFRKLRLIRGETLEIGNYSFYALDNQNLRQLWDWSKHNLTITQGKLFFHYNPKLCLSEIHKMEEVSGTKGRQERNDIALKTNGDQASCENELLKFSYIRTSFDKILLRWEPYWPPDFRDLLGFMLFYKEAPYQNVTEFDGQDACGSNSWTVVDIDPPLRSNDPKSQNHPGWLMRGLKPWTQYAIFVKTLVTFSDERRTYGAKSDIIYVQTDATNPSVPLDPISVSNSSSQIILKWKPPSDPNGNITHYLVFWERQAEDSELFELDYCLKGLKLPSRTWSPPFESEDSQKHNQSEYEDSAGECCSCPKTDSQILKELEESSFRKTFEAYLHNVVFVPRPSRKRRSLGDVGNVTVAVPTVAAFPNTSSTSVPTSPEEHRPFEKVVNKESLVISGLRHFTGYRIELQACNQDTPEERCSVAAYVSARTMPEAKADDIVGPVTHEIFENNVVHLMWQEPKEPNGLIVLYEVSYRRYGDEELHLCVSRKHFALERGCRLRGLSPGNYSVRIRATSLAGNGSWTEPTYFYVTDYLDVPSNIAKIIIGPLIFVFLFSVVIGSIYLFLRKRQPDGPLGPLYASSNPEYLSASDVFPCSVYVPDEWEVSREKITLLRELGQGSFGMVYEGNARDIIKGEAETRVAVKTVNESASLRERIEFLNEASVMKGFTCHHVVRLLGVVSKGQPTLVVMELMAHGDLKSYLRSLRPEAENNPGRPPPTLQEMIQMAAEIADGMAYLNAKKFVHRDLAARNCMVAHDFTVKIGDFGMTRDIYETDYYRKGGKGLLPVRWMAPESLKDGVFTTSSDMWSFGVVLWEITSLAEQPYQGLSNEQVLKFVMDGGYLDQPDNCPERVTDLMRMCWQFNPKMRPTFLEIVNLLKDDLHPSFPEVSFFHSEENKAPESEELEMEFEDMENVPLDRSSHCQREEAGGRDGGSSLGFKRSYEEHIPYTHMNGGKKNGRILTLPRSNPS
Chain of IR D707A (P06213 763-1382 partner limits assumed): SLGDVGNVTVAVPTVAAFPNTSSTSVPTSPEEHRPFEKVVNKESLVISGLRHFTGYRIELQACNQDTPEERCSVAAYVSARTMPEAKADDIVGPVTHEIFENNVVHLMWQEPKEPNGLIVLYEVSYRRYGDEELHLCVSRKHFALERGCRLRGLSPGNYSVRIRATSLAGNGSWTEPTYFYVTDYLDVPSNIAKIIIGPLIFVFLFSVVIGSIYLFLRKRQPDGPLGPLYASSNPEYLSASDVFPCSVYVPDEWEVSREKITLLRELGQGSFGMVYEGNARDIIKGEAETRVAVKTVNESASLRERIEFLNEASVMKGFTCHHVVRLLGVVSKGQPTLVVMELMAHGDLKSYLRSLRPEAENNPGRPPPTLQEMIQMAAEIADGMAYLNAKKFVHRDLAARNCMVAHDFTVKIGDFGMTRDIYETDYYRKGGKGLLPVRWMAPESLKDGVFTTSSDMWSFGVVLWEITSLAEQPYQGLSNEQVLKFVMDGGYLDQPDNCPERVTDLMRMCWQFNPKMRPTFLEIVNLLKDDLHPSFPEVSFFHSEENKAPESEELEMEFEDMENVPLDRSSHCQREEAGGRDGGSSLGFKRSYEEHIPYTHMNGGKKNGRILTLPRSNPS
T4 sequence (P06213 28-1370 isoform P06213-2 R41A limits assumed): as the sequence (P06213 28-1370 isoform P06213-2 D734A limits assumed) above, with R14A, A707D counted along it
T4 sequence (P06213 763-1382 partner limits assumed): as the sequence (P06213 763-1382 partner limits assumed) above
T2 sequence (P06213 28-1370 isoform P06213-2 K511E/L579A limits assumed): as the sequence (P06213 28-1370 isoform P06213-2 D734A limits assumed) above, with K484E, L552A, A707D counted along it
T2 sequence (P06213 763-1382 partner limits assumed): as the sequence (P06213 763-1382 partner limits assumed) above
Chain of insulin-like growth factor 1 receptor (IGF1R) (P08069 31-736 limits assumed, species assumed): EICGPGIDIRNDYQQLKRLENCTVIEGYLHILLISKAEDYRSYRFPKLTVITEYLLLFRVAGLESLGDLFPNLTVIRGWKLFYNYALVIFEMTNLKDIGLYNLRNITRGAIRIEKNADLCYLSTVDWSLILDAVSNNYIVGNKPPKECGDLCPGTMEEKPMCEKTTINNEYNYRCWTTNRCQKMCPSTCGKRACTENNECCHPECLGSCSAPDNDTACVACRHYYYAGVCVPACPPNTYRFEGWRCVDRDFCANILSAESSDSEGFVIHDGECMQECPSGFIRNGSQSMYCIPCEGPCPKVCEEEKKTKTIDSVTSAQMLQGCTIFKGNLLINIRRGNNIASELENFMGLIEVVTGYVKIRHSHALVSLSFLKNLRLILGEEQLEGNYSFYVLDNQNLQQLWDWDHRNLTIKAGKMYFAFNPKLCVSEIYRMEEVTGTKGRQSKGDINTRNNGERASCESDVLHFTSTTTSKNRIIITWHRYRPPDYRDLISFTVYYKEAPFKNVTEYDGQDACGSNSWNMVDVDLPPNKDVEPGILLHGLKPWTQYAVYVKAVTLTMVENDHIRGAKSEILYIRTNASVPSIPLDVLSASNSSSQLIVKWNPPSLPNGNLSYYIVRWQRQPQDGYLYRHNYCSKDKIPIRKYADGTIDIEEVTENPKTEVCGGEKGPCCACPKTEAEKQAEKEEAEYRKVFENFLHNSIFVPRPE
T1 sequence (P06213 28-1370 isoform P06213-2 R41W limits assumed): as the sequence (P06213 28-1370 isoform P06213-2 D734A limits assumed) above, with R14W, A707D counted along it
T1 sequence (P06213 763-1382 partner limits assumed): as the sequence (P06213 763-1382 partner limits assumed) above
T3 sequence (P06213 28-1370 isoform P06213-2 F91A limits assumed): as the sequence (P06213 28-1370 isoform P06213-2 D734A limits assumed) above, with F64A, A707D counted along it
T3 sequence (P06213 763-1382 partner limits assumed): as the sequence (P06213 763-1382 partner limits assumed) above
Chain of IR (P15208 28-748 limits assumed): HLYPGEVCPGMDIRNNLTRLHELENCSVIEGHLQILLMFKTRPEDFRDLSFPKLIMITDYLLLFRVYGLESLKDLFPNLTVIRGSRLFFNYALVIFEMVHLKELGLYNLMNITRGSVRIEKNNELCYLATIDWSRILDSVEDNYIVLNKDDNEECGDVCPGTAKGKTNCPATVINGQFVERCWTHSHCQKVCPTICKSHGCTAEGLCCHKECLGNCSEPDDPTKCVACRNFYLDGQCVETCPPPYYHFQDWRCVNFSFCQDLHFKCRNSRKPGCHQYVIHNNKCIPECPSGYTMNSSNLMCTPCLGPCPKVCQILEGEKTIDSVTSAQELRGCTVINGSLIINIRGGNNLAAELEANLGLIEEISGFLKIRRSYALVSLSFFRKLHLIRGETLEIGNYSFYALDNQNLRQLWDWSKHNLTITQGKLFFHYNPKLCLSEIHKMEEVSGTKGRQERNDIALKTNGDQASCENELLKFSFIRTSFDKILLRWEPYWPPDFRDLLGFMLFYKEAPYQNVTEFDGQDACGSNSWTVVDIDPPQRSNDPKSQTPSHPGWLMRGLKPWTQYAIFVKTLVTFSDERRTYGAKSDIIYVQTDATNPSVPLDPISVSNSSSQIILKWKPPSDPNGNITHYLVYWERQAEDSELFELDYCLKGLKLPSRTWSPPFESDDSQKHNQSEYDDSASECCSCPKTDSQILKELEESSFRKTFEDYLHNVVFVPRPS
Chain of IR (P15208 753-1372 partner limits assumed): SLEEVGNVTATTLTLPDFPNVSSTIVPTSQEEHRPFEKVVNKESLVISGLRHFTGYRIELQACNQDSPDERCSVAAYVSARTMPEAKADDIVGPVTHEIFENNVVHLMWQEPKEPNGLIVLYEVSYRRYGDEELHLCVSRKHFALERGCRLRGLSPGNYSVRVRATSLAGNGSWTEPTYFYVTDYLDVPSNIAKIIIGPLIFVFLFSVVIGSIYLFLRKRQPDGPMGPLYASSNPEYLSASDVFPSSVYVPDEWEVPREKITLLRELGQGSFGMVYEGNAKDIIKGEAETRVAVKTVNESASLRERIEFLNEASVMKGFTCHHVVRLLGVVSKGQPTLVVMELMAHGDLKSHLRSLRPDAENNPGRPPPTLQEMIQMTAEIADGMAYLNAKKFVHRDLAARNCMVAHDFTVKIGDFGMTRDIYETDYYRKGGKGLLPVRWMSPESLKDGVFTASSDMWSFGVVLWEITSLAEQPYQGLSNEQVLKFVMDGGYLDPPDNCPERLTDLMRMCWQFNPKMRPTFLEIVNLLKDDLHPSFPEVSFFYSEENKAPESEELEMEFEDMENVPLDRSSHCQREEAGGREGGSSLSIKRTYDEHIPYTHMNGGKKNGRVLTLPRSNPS

On to `CC[C@H](C)[C@H](NC(=O)[C@H](CCC(N)=O)NC(=O)[C@H](C)NC(=O)[C@H](Cc1c[nH]c2ccccc12)NC(=O)[C@H](CCC(=O)O)NC(=O)[C@H](CCC(=O)O)NC(=O)[C@H](CCC(=O)O)NC(=O)[C@H](CC(C)C)NC(=O)[C@H](CO)NC(C)=O)C(=O)N[C@@H](CCC(=O)O)C(=O)N[C@H]1CSSC[C@@H](C(=O)N2CCC[C@H]2C(=O)N[C@@H](CO)C(=O)N[C@@H](CCC(=O)O)C(=O)N[C@@H](CO)C(=O)N[C@@H](Cc2ccccc2)C(=O)N[C@@H](Cc2ccc(O)cc2)C(=O)N[C@@H](CC(=O)O)C(=O)N[C@@H](Cc2c[nH]c3ccccc23)C(=O)N[C@@H](Cc2ccccc2)C(=O)N[C@@H](CCC(=O)O)C(=O)N[C@@H](CCCNC(=N)N)C(=O)N[C@@H](CCC(N)=O)C(=O)N[C@@H](CC(C)C)C(N)=O)NC(=O)CNC(=O)[C@H](CCCNC(=N)N)NC(=O)CNC(=O)[C@H](Cc2ccc(O)cc2)NC(=O)[C@H](C(C)C)NC(=O)[C@H](CCC(=O)O)NC1=O` [S597] (Ac-SLEEEWAQIECEVYGRGCPSESFYDWFERQL-NH2; disulfide 11-18), for which the cell proliferation result in the assay with T47D and in the assay with CAL33 [2] was “did not promote” each time. For the same compound, at IR D707A, the “phosphorylation of AKT (pAKT)” value was “significantly increased”. For the same compound, the “phosphorylation of ERK (pERK)” value at IR D707A is on record as “significantly increased”. At IR D707A, the “phosphorylation of IR (pY IR)” value is on record as “significantly increased”. For the same compound, the “area under curve (AUC) for blood glucose during OGTT” value in assay [1] is “No significant”. Also, the IR signaling result with MCF7 and with CAL33 [4] was “failed to activate” in each case. The “IR activation (pY IR)” value was “fully activated” on IR R14W, “could not be activated efficiently” at IR K484E/L552A, “could still be activated” on IR F64A and “fully activated” at IR R14A. Also, the “activation of IGF1R” value in assay [3] is given as “does not activate”. Moreover, the “cell viability and growth” value in the assay with C2C12 cells is reported as “does not promote cell proliferation as efficiently as insulin”. Further, the “IR endocytosis / internalization” value at IR is recorded as “promoted IR internalization”.
